Experimental findings from patent publication US20230203059A1, “MACROCYCLIC JAK INHIBITOR AND USES THEREOF” (Biopolar Hongye (Guangdong) Pharmaceutical Co. Ltd., priority 2020, published 2023) are described below.

What all share (assay type): biochemical
The target of one experiment is JAK2 (Homo sapiens, UniProt O60674). Put plainly: JAK kinase activity, homogeneous time-resolved fluorescence (JAK2 reaction system). Particulars: ATP 2 μM, JAK2 protein 0.01 ng/μL. The essentials: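 IC50 derived by Hill-equation fit of the 665/615 nm time-resolved fluorescence ratio after EDTA-containing detection mix with anti-phosphosubstrate antibody. Preceding 1 h reaction contained 2 μM ATP, 0.01 ng/μL JAK2, substrate, 50 mM Hepes pH 7.0, 5 mM MgCl2, 1 mM DTT.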
Chain of JAK2 (O60674 whole entry): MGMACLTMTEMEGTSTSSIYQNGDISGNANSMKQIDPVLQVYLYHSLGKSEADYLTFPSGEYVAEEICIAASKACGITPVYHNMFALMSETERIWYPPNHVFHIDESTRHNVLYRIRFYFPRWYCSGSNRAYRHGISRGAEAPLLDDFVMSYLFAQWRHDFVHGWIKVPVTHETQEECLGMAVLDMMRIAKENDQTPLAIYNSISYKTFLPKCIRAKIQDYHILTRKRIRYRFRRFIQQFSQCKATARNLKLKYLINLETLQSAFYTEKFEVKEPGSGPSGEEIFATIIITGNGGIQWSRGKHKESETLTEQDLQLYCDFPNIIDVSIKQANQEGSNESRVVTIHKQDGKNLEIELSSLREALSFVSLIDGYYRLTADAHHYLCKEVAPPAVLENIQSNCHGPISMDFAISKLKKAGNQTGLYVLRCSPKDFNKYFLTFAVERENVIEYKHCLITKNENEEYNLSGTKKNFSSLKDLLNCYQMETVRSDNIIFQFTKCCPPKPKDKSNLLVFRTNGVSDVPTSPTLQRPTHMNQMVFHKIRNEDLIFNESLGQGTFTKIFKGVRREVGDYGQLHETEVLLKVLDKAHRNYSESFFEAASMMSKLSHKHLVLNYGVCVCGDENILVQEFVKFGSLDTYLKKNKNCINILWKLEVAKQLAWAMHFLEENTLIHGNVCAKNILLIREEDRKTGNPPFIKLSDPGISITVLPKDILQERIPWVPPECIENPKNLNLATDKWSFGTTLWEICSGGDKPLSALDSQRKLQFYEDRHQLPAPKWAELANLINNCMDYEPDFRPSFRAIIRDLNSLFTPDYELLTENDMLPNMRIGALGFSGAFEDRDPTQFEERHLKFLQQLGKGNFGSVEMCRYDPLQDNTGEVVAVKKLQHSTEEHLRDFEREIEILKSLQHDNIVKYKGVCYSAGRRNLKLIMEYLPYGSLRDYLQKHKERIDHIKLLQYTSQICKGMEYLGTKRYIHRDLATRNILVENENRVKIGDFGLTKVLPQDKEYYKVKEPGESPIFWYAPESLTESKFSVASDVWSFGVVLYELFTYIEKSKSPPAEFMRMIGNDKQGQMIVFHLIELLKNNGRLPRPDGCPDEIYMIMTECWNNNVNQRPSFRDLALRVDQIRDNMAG

For the next experiment, the target named is TYK2 (Homo sapiens, UniProt P29597). Put plainly: JAK kinase activity, homogeneous time-resolved fluorescence (TYK2 reaction system). As to conditions: ATP 2 μM, TYK2 protein 0.2 ng/μL; read-out: TYK 2 activity. In outline: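 Activity read as the 665 nm/615 nm ratio after adding EDTA-containing detection mix with anti-phospho-substrate antibody and XL-615. Beforehand, 0.2 ng/μL TYK2, 2 μM ATP, substrate and compound reacted 1 h in pH 7.0 Hepes buffer with MgCl2 and DTT. IC50 fitted with Hill-slope equation.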
Chain of TYK2 (P29597 whole entry): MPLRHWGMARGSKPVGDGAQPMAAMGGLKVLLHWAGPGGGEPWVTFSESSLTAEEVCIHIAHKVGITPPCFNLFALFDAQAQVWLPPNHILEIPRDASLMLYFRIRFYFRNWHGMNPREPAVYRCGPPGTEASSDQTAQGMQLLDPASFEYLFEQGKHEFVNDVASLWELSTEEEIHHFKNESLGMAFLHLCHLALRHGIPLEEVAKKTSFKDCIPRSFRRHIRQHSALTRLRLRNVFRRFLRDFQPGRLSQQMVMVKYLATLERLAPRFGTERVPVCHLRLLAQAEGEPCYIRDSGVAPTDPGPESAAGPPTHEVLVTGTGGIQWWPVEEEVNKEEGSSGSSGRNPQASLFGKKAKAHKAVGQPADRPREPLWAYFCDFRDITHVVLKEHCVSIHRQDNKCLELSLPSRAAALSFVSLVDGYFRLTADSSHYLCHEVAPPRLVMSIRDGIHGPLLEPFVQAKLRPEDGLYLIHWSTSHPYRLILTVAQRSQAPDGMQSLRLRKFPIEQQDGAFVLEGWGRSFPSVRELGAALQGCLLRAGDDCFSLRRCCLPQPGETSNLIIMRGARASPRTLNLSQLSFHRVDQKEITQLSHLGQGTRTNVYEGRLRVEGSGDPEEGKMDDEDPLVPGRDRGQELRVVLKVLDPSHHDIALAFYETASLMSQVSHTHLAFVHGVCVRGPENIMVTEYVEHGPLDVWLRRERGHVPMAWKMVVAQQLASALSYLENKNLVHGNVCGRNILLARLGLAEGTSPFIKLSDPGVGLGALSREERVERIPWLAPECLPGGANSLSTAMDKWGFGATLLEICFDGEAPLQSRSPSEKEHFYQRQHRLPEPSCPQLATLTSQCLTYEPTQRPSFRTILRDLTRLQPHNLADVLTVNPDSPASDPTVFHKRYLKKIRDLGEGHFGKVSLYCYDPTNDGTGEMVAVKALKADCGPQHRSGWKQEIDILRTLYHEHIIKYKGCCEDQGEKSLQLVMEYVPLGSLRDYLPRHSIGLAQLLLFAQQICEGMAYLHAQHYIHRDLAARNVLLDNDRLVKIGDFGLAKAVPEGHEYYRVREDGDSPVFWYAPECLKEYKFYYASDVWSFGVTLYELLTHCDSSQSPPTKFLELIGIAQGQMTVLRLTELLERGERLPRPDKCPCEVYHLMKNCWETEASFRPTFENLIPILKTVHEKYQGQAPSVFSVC

Another experiment addresses JAK1 (Homo sapiens, UniProt P23458). As to the kind of experiment: JAK kinase activity, homogeneous time-resolved fluorescence (JAK1 reaction system). As to conditions: ATP 2 μM, JAK1 protein 0.2 ng/μL; read-out: JAK 1 activity. The essentials:
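HTRF assay: JAK1 (0.2 ng/μL) with 2 μM ATP and substrate in 50 mM Hepes pH 7.0, 5 mM MgCl2, 1 mM DTT, 1 h. Phospho-substrate antibody/XL-615 detection with EDTA; 665/615 nm ratio, excitation 320 nm. IC50 from Hill-type fit against no-enzyme and no-compound controls.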

In the next experiment the target is T1, JAK3 (Homo sapiens, UniProt P52333).
T1 sequence (P52333 1-1124): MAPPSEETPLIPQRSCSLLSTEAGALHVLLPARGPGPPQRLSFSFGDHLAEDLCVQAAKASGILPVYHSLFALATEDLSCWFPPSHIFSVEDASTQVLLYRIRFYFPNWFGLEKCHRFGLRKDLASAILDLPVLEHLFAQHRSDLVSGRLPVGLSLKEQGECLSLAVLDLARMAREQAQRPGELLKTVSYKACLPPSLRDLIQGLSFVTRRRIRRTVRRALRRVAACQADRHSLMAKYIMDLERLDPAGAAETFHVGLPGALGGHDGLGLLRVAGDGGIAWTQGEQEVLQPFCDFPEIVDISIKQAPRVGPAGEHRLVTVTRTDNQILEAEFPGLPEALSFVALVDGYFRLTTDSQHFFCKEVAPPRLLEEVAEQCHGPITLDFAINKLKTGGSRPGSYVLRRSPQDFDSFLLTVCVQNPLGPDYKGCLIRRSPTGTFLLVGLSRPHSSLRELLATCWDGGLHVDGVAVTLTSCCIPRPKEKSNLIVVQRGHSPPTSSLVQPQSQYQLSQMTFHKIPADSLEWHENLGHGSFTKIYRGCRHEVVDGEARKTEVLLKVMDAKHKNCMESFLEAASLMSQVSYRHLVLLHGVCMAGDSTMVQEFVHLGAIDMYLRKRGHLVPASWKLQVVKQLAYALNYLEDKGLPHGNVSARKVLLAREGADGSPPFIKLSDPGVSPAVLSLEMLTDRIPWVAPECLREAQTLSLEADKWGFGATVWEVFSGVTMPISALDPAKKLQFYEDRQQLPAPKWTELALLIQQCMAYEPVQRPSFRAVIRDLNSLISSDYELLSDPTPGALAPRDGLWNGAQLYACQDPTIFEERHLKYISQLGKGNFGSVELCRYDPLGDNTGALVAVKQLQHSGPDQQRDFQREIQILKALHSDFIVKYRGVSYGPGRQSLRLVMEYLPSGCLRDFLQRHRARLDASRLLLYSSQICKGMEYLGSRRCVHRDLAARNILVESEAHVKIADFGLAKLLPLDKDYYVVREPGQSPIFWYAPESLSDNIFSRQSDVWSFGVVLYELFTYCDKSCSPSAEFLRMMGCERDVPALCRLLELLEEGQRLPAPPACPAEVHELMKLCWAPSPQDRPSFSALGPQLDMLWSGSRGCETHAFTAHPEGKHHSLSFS
Put plainly: JAK kinase activity, homogeneous time-resolved fluorescence (JAK3 reaction system). Particulars: ATP 2 μM, JAK3 protein 0.04 ng/μL; read-out: JAK 3 activity.

Each structure is given as a SMILES string. pIC50: −log10 of the molar value.

Chain of JAK1 (P23458 whole entry): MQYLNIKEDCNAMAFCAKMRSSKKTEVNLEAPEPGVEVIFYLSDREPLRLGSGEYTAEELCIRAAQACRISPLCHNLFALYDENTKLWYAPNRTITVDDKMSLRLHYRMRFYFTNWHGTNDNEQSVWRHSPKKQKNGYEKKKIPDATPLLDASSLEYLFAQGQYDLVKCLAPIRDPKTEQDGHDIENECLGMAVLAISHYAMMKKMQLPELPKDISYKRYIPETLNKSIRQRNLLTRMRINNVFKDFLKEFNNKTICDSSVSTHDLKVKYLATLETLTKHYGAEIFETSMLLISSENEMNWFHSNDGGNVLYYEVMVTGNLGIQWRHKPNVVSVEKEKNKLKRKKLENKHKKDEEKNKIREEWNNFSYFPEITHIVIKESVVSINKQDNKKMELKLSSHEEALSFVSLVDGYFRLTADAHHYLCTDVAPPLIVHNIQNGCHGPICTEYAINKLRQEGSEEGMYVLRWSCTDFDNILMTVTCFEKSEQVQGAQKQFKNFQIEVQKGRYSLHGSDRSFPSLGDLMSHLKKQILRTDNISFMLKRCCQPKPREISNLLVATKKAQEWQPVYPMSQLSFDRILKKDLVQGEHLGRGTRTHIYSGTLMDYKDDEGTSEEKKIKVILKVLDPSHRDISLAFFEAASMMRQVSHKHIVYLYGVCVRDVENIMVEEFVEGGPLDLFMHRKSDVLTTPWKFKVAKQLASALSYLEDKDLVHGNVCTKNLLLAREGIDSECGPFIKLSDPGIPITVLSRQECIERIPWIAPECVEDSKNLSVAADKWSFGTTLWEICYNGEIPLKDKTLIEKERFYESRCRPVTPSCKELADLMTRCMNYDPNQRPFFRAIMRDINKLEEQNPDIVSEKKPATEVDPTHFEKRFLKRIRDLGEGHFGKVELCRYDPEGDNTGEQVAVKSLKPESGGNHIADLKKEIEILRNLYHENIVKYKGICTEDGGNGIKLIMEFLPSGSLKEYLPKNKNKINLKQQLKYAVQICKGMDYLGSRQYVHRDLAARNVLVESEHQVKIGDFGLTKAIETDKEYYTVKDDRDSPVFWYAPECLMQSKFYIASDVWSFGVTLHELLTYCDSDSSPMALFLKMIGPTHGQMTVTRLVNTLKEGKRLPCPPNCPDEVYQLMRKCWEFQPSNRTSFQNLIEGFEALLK

Consider `Nc1cc2ccc1-c1ccnc(n1)Nc1ccc(OC3CCC3)c(c1)COCCCCNC2=O` [Example 79, 1^2-amino-4^4-cyclobutoxy-6-oxa-3,11-diaza-2(4,2)-pyrimidina-1(1,4),4(1,3)-dibenzenacyclododecaphan-12-one], for which the pIC50 is 6.00 to 7.00 on JAK2, 5.00 to 6.00 on TYK2, 6.00 to 7.00 on JAK1 and 7.00 to 7.96 at JAK3.
As for `O=C1NC2CCC(CC2)COCc2cc(ccc2N2CCOCC2)Nc2nccc(n2)-c2ccc1cc2` [Example 80, 4^4-morpholine-6-oxa-3,9-diaza-2(4,2)-pyrimidina-1(1,4),4(1,3)-dibenze-na-8(1,4)-cyclododecaphan-10-one], the pIC50 against JAK2 was 5.00 to 6.00; on TYK2, less than 5.00; on JAK1 it was 5.00 to 6.00; on JAK3, 5.00 to 6.00.
For the molecule `O=C1NCCCCOCc2cc(ccc2O)Nc2nccc(n2)-c2ccc1cc2[N+](=O)[O-]` [Example 81, 4^4-hydroxy-1-nitro-6-oxa-3,11-diaza-2(4,2)-pyrimidina-1(1,4),4(1,3)-di-benzenacyclododecaphan-12-one], the pIC50 on JAK2 is 5.00 to 6.00; on TYK2, less than 5.00; on JAK1 it was 5.00 to 6.00; on JAK3 it was 6.00 to 7.00.
On to `CNc1cc2ccc1-c1ccnc(n1)Nc1ccc(OC3CC3)c(c1)COCCCCNC2=O` [Example 82, 4^4-cyclopropoxy-1^2-methylamino-6-oxa-3,11-diaza-2(4,2)-pyrimidina-1(1,4),4(1,3)-dibenzenacyclododeca-phan-12-one], for which the pIC50 was 5.00 to 6.00 against JAK2, less than 5.00 at TYK2, 5.00 to 6.00 at JAK1 and 5.00 to 6.00 at JAK3.
As to `CN(C)c1cc2ccc1-c1ccnc(n1)Nc1ccc(OC3CC3)c(c1)COCCCCNC2=O` [Example 83, 4^4-cyclopropxy-1^2-dimethylamino-6-oxa-3,11-diaza-2(4,2)-pyrimidina-1(1,4),4(1,3)-dibenzenacyclododeca-phan-12-one], the pIC50 against JAK2 is 5.00 to 6.00; at TYK2, less than 5.00; at JAK1 it was 5.00 to 6.00; on JAK3 it was less than 5.00.
Regarding `Nc1cc2ccc1-c1ccnc(n1)Nc1cc(F)c(OC3CCOCC3)c(c1)COCCCCNC2=O` [Example 84, 1^2-amino-4^5-fluoro-4^4-((tetrahydro-2H-pyran-4-yl)oxy)-6-oxa-3,11-dia-za-2(4,2)-pyrimidina-1(1,4),4(1,3)-dibenzenacyclododecaphan-12-one], the pIC50 at JAK2 is 6.00 to 7.00; on TYK2, 5.00 to 6.00; at JAK1, 6.00 to 7.00; on JAK3, 7.00 to 7.96.
For the molecule `CC(C)Oc1c(F)cc2cc1COCCCCNC(=O)c1ccc(c(N)c1)-c1ccnc(n1)N2` [Example 85, 1^2-amino-4^5-fluoro-4^4-isopropoxy-6-oxa-3,11-diaza-2(4,2)-pyrimidina-1(1,4),4(1,3)-dibenzenacyclododeca-phan-12-one], the pIC50 on JAK2 was 6.00 to 7.00; at TYK2, less than 5.00; on JAK1, 6.00 to 7.00; at JAK3 it was 7.00 to 7.96.
As for `CNc1cc2ccc1-c1ccnc(n1)Nc1ccc(OC(C)C)c(c1)COCCCCNC2=O` [Example 86, 4^4-isopropoxy-1^2-methyalmino-6-o-xa-3,11-diaza-2(4,2)-pyrimidina-1(1,4),4(1,3)-dibenzenacyclododecaphan-12-one], the pIC50 against JAK2 was 5.00 to 6.00; on TYK2 it was less than 5.00; at JAK1 it was 5.00 to 6.00; on JAK3, 6.00 to 7.00.
For the molecule `O=C1NCCCCOCc2cc(ccc2OC2CCCC2)Nc2nccc(n2)-c2ccc1cc2[N+](=O)[O-]` [Example 87, 4^4-cyclopentoxy-1^2-nitro-6-oxa-3,11-diaza-2(4,2)-pyrimidina-1(1,4),4(1,3)-dibenzenacyclododecaphan-12-one], the pIC50 at JAK2 is less than 5.00; on TYK2 it was less than 5.00; on JAK1, less than 5.00; at JAK3, 6.00 to 7.00.
`Nc1cc2ccc1-c1ccnc(n1)Nc1ccc(OC3CCCC3)c(c1)COCCCCNC2=O` [Example 88, 1^2-amino-4^4-cyclopentoxy-6-oxa-3,11-diaza-2(4,2)-pyrimidina-1(1,4),4(1,3)-dibenzenacyclododecaphan-12-one]: the pIC50 is 7.00 to 7.96 at JAK2, 5.00 to 6.00 on TYK2, 6.00 to 7.00 on JAK1 and more than 8.00 at JAK3.
Consider `O=C1NCCCCOCc2cc(ccc2Br)Nc2nccc(n2)-c2ccc1cc2[N+](=O)[O-]` [Example 89, 4^4-bromo-1^2-nitro-6-oxa-3,11-diaza-2(4,2)-pyrimidina-1(1,4),4(1,3)-di-benzenacyclododecaphan-12-one], for which the pIC50 at JAK2 was 5.00 to 6.00; on TYK2, less than 5.00; at JAK1, 5.00 to 6.00; on JAK3, 5.00 to 6.00.
On to `Nc1cc2ccc1-c1ccnc(n1)Nc1ccc(Br)c(c1)COCCCCNC2=O` [Example 90, 1^2-amino-4^4-bromo-6-oxa-3,11-diaza-2(4,2)-pyrimidina-1(1,4),4(1,3)-di-benzenacyclododecaphan-12-one], for which the pIC50 at JAK2 was 6.00 to 7.00; at TYK2, less than 5.00; on JAK1, 6.00 to 7.00; on JAK3, 7.00 to 7.96.
`Nc1cc2ccc1-c1ccnc(n1)Nc1ccc(F)c(c1)COc1ccc(cc1)NC2=O` [Example 91, 1^2-amino-4^4-fluoro-6-oxa-3,8-diaza-2(4,2)-pyrimidina-1,7(1,4),4(1,3)-tri-benzenacyclononaphane-9-one]: the pIC50 on JAK2 is less than 5.00; at TYK2, less than 5.00; on JAK1, less than 5.00; on JAK3, 6.00 to 7.00.
Turning to `O=C1NCCCCOCc2cc(ccc2OC2CCCC2)Nc2nccc(n2)-c2ccc1cc2F` [Example 92, 4^4-cyclopentoxy-1^2-fluoro-6-oxa-3,11-diaza-2(4,2)-pyrimidina-1(1,4),4(1,3)-dibenzenacyclododecaphan-12-one], the pIC50 is 6.00 to 7.00 at JAK2, 5.00 to 6.00 on TYK2, 5.00 to 6.00 at JAK1 and 7.00 to 7.96 on JAK3.
In the case of `O=C1NCCCCOCc2cc(cc(F)c2F)Nc2nccc(n2)-c2ccc1cc2[N+](=O)[O-]` [Example 93, 4^4,4^5-difluoro-1^2-nitro-6-oxa-3,11-di-aza-2(4,2)-pyrimidina-1(1,4),4(1,3)-dibenzenacyclododecaphan-12-one], the pIC50 on JAK2 is 5.00 to 6.00; at TYK2, less than 5.00; on JAK1, 5.00 to 6.00; at JAK3, 6.00 to 7.00.
In the case of `Nc1cc2ccc1-c1ccnc(n1)Nc1cc(F)c(F)c(c1)COCCCCNC2=O` [Example 94, 1^2-amino-4^4,4^5-difluoro-6-oxa-3,11-diaza-2(4,2)-pyrimidina-1(1,4),4(1,3)-dibenzenacyclododecaphan-12-one], the pIC50 is 5.00 to 6.00 at JAK2, less than 5.00 on TYK2, 5.00 to 6.00 at JAK1 and 7.00 to 7.96 at JAK3.
For `CC1CCNC(=O)c2ccc(c(N)c2)-c2ccnc(n2)Nc2ccc(OC3CC3)c(c2)COC1` (centres unmarked) [Example 95, 1^2-amino-4^4-cyclopropoxy-8-methyl-6-oxa-3, 11-diaza-2 (4,2)-pyrimidina-1(1,4),4(1,3)-dibenzenacyclododecaphan-12-one], the pIC50 is 7.00 to 7.96 at JAK2, 5.00 to 6.00 at TYK2, 5.00 to 6.00 at JAK1 and more than 8.00 on JAK3.
